Results published in patent US20130072470A1 (ABBVIE INC., priority 2011, published 2013).

The compounds below were run against T1, Jak3 enzyme (aa 811-1103) (Homo sapiens, UniProt P52333) (assay: In vitro Jak3 kinase activity measured by time-resolved fluorescence resonance energy transfer (trFRET)). Settings: ATP 0.001 mM, Table B.
T1 construct: Jak3 enzyme (aa 811-1103); expressed in SF9 cells as a GST fusion; GST; made in house; host or cells: SF9 insect cells
Assay type: biochemical
Protocol: In Vitro Jak3 Kinase Activity Measured by Time-Resolved Fluorescence Resonance Energy Transfer (trFRET)
Varying concentrations of inhibitor were added to an assay well containing: Jak3 enzyme (aa 811-1103; expressed in SF9 cells as a GST fusion and purified by glutathione affinity chromatography; 3 nM), peptide substrate (biotin-TYR2, Sequence: Biotin-(Ahx)-AEEEYFFLFA-amide; 2 μM), MOPSO pH 6.5 (50 mM), MgCl2 (10 mM), MnCl2 (2 mM), DTT (2.5 mM), BSA (0.01% w/v), Na3VO4 (0.1 mM) and ATP (0.001 mM). After about 60 min incubation at rt, the reaction was quenched by addition of EDTA (final concentration: 100 mM) and developed by addition of revelation reagents (final approximate concentrations: 30 mM HEPES pH 7.0, 0.06% BSA, 0.006% Tween-20, 0.24 M KF, 80 ng/mL PT66K (europium labeled anti-phosphotyrosine antibody cat #61T66KLB Cisbio, Bedford, Mass.) and 0.8 μg/mL SAXL (Phycolink streptavidin-allophycocyanin acceptor, cat #PJ52S, Prozyme, San Leandro, Calif.). The developed reaction was incubated in the dark either at about 4° C., for about 14 h or for about 60 min at rt, then read via a time-resolved fluorescence detector (Rubystar, BMG) using a 337 nm laser for excitation and emission wavelength of 665 nm. Within the linear range of the assay, the observed signal at 665 nm is directly related to phosphorylated product and used to calculate the IC50 values.

T1 sequence (P52333 811-1103): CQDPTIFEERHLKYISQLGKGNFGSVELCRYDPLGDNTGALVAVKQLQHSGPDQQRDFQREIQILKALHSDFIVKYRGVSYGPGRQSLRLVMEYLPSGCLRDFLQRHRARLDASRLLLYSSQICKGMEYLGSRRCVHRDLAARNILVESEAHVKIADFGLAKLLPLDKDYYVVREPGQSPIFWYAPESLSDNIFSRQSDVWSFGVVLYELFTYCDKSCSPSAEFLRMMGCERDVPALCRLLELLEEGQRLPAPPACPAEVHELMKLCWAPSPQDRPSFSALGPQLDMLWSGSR

Row | SMILES | IC50 [µM]
1 | CC[C@@H]1C[C@H](NC(=O)C(CC2CC2)NC(C)=O)C[C@@H]1c1nnc2cnc3[nH]ccc3n12 (stereo partly drawn) [compound 31, 2-acetamido-3-cyclopropyl-N-((1S,3R,4S)-3-ethyl-4-(6H-pyrrolo[2,3-e][1,2,4]triazolo[4,3-a]pyrazin-1-yl)cyclopentyl)propanamide] | > 10
2 | CC[C@@H]1C[C@H](NC(=O)Cc2coc3ccccc23)C[C@@H]1c1nnc2cnc3[nH]ccc3n12 [compound 41, 2-(benzofuran-3-yl)-N-((1S,3R,4S)-3-ethyl-4-(6H-pyrrolo[2,3-e][1,2,4]triazolo[4,3-a]pyrazin-1-yl)cyclopentyl)acetamide] | 1 to 10
3 | CC[C@@H]1C[C@H](NC(=O)c2ncoc2C)C[C@@H]1c1nnc2cnc3[nH]ccc3n12 [compound 42, N-((1S,3R,4S)-3-ethyl-4-(6H-pyrrolo[2,3-e][1,2,4]triazolo[4,3-a]pyrazin-1-yl)cyclopentyl)-5-methyloxazole-4-carboxamide] | 1 to 10
4 | CC[C@@H]1C[C@H](NC(=O)c2oc3ccccc3c2C)C[C@@H]1c1nnc2cnc3[nH]ccc3n12 [compound 43, N-((1S,3R,4S)-3-ethyl-4-(6H-pyrrolo[2,3-e][1,2,4]triazolo[4,3-a]pyrazin-1-yl)cyclopentyl)-3-methylbenzofuran-2-carboxamide] | 1 to 10
5 | CC[C@@H]1C[C@H](NC(=O)CCC2(C)CC2)C[C@@H]1c1nnc2cnc3[nH]ccc3n12 [compound 44, N-((1S,3R,4S)-3-ethyl-4-(6H-pyrrolo[2,3-e][1,2,4]triazolo[4,3-a]pyrazin-1-yl)cyclopentyl)-3-(1-methylcyclopropyl)propanamide] | 1 to 10
6 | CC[C@@H]1C[C@H](NC(=O)CCC2CC2)C[C@@H]1c1nnc2cnc3[nH]ccc3n12 [compound 45, 3-cyclopropyl-N-((1S,3R,4S)-3-ethyl-4-(6H-pyrrolo[2,3-e][1,2,4]triazolo[4,3-a]pyrazin-1-yl)cyclopentyl)propanamide] | 1 to 10
7 | CC[C@@H]1C[C@H](NC(=O)c2ccc(C)o2)C[C@@H]1c1nnc2cnc3[nH]ccc3n12 [compound 46, N-((1S,3R,4S)-3-ethyl-4-(6H-pyrrolo[2,3-e][1,2,4]triazolo[4,3-a]pyrazin-1-yl)cyclopentyl)-5-methylfuran-2-carboxamide] | > 10
8 | CC[C@@H]1C[C@H](NC(=O)c2ncoc2C2CC2)C[C@@H]1c1nnc2cnc3[nH]ccc3n12 [compound 47, 5-cyclopropyl-N-((1S,3R,4S)-3-ethyl-4-(6H-pyrrolo[2,3-e][1,2,4]triazolo[4,3-a]pyrazin-1-yl)cyclopentyl)oxazole-4-carboxamide] | > 10
9 | CC[C@@H]1C[C@H](NC(=O)CNC(=O)c2ccco2)C[C@@H]1c1nnc2cnc3[nH]ccc3n12 [compound 48] | 1 to 10
10 | CC[C@@H]1C[C@H](NC(=O)c2cc(C)on2)C[C@@H]1c1nnc2cnc3[nH]ccc3n12 [compound 49, N-((1S,3R,4S)-3-ethyl-4-(6H-pyrrolo[2,3-e][1,2,4]triazolo[4,3-a]pyrazin-1-yl)cyclopentyl)-5-methylisoxazole-3-carboxamide] | 1 to 10
11 | CC[C@@H]1C[C@H](NC(=O)c2ccno2)C[C@@H]1c1nnc2cnc3[nH]ccc3n12 [compound 50, N-((1S,3R,4S)-3-ethyl-4-(6H-pyrrolo[2,3-e][1,2,4]triazolo[4,3-a]pyrazin-1-yl)cyclopentyl)isoxazole-5-carboxamide] | 1 to 10
12 | CC[C@@H]1C[C@H](NC(=O)c2ocnc2C)C[C@@H]1c1nnc2cnc3[nH]ccc3n12 [compound 51, N-((1S,3R,4S)-3-ethyl-4-(6H-pyrrolo[2,3-e][1,2,4]triazolo[4,3-a]pyrazin-1-yl)cyclopentyl)-4-methyloxazole-5-carboxamide] | 1 to 10
13 | CC[C@@H]1C[C@H](NC(=O)c2ccoc2C)C[C@@H]1c1nnc2cnc3[nH]ccc3n12 [compound 52, N-((1S,3R,4S)-3-ethyl-4-(6H-pyrrolo[2,3-e][1,2,4]triazolo[4,3-a]pyrazin-1-yl)cyclopentyl)-2-methylfuran-3-carboxamide] | 1 to 10
14 | CC[C@@H]1C[C@H](NC(=O)C2(C#N)CC2)C[C@@H]1c1nnc2cnc3[nH]ccc3n12 [compound 54, 1-cyano-N-((1S,3R,4S)-3-ethyl-4-(6H-pyrrolo[2,3-e][1,2,4]triazolo[4,3-a]pyrazin-1-yl)cyclopentyl)cyclopropanecarboxamide] | 1 to 10
15 | CC[C@@H]1C[C@H](NC(=O)Cc2cc(C)no2)C[C@@H]1c1nnc2cnc3[nH]ccc3n12 [compound 55, N-((1S,3R,4S)-3-ethyl-4-(6H-pyrrolo[2,3-e][1,2,4]triazolo[4,3-a]pyrazin-1-yl)cyclopentyl)-2-(3-methylisoxazol-5-yl)acetamide] | 1 to 10
16 | CC[C@@H]1C[C@H](NC(=O)c2ccoc2)C[C@@H]1c1nnc2cnc3[nH]ccc3n12 [compound 56, N-((1S,3R,4S)-3-ethyl-4-(6H-pyrrolo[2,3-e][1,2,4]triazolo[4,3-a]pyrazin-1-yl)cyclopentyl)furan-3-carboxamide] | 1 to 10
17 | CC[C@@H]1C[C@H](NC(=O)c2cc3ccccc3o2)C[C@@H]1c1nnc2cnc3[nH]ccc3n12 [compound 57, N-((1S,3R,4S)-3-ethyl-4-(6H-pyrrolo[2,3-e][1,2,4]triazolo[4,3-a]pyrazin-1-yl)cyclopentyl)benzofuran-2-carboxamide] | 1 to 10
18 | CC[C@@H]1C[C@H](NC(=O)c2coc3c2C(=O)CCC3)C[C@@H]1c1nnc2cnc3[nH]ccc3n12 [compound 58, N-((1S,3R,4S)-3-ethyl-4-(6H-pyrrolo[2,3-e][1,2,4]triazolo[4,3-a]pyrazin-1-yl)cyclopentyl)-4-oxo-4,5,6,7-tetrahydrobenzofuran-3-carboxamide] | 1 to 10

The next lines start with the values.

Row | IC50 [µM] | SMILES
19 | 1 to 10 | CC[C@@H]1C[C@H](NC(=O)CNC(=O)c2ccc(C)o2)C[C@@H]1c1nnc2cnc3[nH]ccc3n12 [compound 30, N-(2-((1S,3R,4S)-3-ethyl-4-(6H-pyrrolo[2,3-e][1,2,4]triazolo[4,3-a]pyrazin-1-yl)cyclopentylamino)-2-oxoethyl)-5-methylfuran-2-carboxamide]
20 | 1 to 10 | CC[C@@H]1C[C@H](NC(=O)c2coc3ccccc23)C[C@@H]1c1nnc2cnc3[nH]ccc3n12 [compound 32, N-((1S,3R,4S)-3-ethyl-4-(6H-pyrrolo[2,3-e][1,2,4]triazolo[4,3-a]pyrazin-1-yl)cyclopentyl)benzofuran-3-carboxamide]
21 | 1 to 10 | CC[C@@H]1C[C@H](NC(=O)c2cc3ccc(C)cc3o2)C[C@@H]1c1nnc2cnc3[nH]ccc3n12 [compound 33, N-((1S,3R,4S)-3-ethyl-4-(6H-pyrrolo[2,3-e][1,2,4]triazolo[4,3-a]pyrazin-1-yl)cyclopentyl)-6-methylbenzofuran-2-carboxamide]
22 | 1 to 10 | CC[C@@H]1C[C@H](NC(=O)c2conc2C)C[C@@H]1c1nnc2cnc3[nH]ccc3n12 [compound 34, N-((1S,3R,4S)-3-ethyl-4-(6H-pyrrolo[2,3-e][1,2,4]triazolo[4,3-a]pyrazin-1-yl)cyclopentyl)-3-methylisoxazole-4-carboxamide]
23 | 1 to 10 | CC[C@@H]1C[C@H](NC(=O)c2c(C)oc3c2CCCC3)C[C@@H]1c1nnc2cnc3[nH]ccc3n12 [compound 35, N-((1S,3R,4S)-3-ethyl-4-(6H-pyrrolo[2,3-e][1,2,4]triazolo[4,3-a]pyrazin-1-yl)cyclopentyl)-2-methyl-4,5,6,7-tetrahydrobenzofuran-3-carboxamide]
24 | 1 to 10 | CC[C@@H]1C[C@H](NC(=O)CCc2cc(OC)no2)C[C@@H]1c1nnc2cnc3[nH]ccc3n12 [compound 36, N-((1S,3R,4S)-3-ethyl-4-(6H-pyrrolo[2,3-e][1,2,4]triazolo[4,3-a]pyrazin-1-yl)cyclopentyl)-3-(3-methoxyisoxazol-5-yl)propanamide]
25 | 1 to 10 | CC[C@@H]1C[C@H](NC(=O)CCc2nc(C)no2)C[C@@H]1c1nnc2cnc3[nH]ccc3n12 [compound 37, N-((1S,3R,4S)-3-ethyl-4-(6H-pyrrolo[2,3-e][1,2,4]triazolo[4,3-a]pyrazin-1-yl)cyclopentyl)-3-(3-methyl-1,2,4-oxadiazol-5-yl)propanamide]
26 | 1 to 10 | CC[C@@H]1C[C@H](NC(=O)CNC(=O)c2cnoc2C)C[C@@H]1c1nnc2cnc3[nH]ccc3n12 [compound 38, N-(2-((1S,3R,4S)-3-ethyl-4-(6H-pyrrolo[2,3-e][1,2,4]triazolo[4,3-a]pyrazin-1-yl)cyclopentylamino)-2-oxoethyl)-5-methylisoxazole-4-carboxamide]
27 | < 1 | CC[C@@H]1C[C@H](NC(=O)C2=NN=C(c3ccco3)C2)C[C@@H]1c1nnc2cnc3[nH]ccc3n12 [compound 39, N-((1S,3R,4S)-3-ethyl-4-(6H-pyrrolo[2,3-e][1,2,4]triazolo[4,3-a]pyrazin-1-yl)cyclopentyl)-5-(furan-2-yl)-4H-pyrazole-3-carboxamide]
28 | < 1 | CC[C@@H]1C[C@H](NC(=O)CCc2ccco2)C[C@@H]1c1nnc2cnc3[nH]ccc3n12 [compound 53, N-((1S,3R,4S)-3-ethyl-4-(6H-pyrrolo[2,3-e][1,2,4]triazolo[4,3-a]pyrazin-1-yl)cyclopentyl)-3-(furan-2-yl)propanamide]
